# Assays:
# E. coli MG1655 = test: Effect of added compounds on uptake of biotinylated peptide (competition / block); assay type: cell-based, Escherichia coli; details: 31 amino acid peptide, sampled after 10 minutes
# Method: (§1) Uptake assays. Minimal 37° C. overnights were diluted into fresh minimal media and incubated at 37° C. until they reached an OD550 of 0.5. The 10 and 31 amino acid randomized biotinylated peptides were added to the media at a concentration of 1 μg per mL of culture. After addition of the peptide to the culture, 1 mL aliquots were extracted at time intervals up to an hour, washed twice of extracellular peptide using fresh minimal media, then boiled with SDS-PAGE gradient sample buffer. Samples were run on a 10-16% tricine gradient gel (Schägger et al., 1987, Anal. Biochem. 166:368-379) and transferred to nitrocellulose membranes. The resulting Western blots were treated with NeutrAvidin Horseradish Peroxidase Conjugate and SuperSignal West Dura Extended Duration Chemiluminescent Substrate. The membranes were incubated for 5-10 minutes then exposed to X-ray film for 1-10 minutes. Bands on the film were quantified using the AlphaEase 5.5 Densitometry ProGram from Alpha Innotech.
# (§2) One mL samples were extracted 10 minutes after the addition of the peptide and analyzed by SDS PAGE as previously described.
# S. aureus = test: Effect of added biotin on uptake of biotinylated peptide (competition); assay type: cell-based, Staphylococcus aureus; details: 31 amino acid peptide; equimolar or 10× equimolar amounts, added five minutes before peptide
# Method: as §1, §2
# [1] = equimolar or 10× equimolar amounts, added five minutes before peptide
Compound,effect on uptake of biotinylated peptide in E. coli (E. coli MG1655; CCCP 50 μM added prior to peptide),effect on uptake of biotinylated peptide in E. coli (E. coli MG1655; [1]),effect on uptake of biotinylated peptide in S. aureus (S. aureus)
"N#CC(C#N)=NNc1cccc(Cl)c1 [CCCP, carbonyl cyanide m-chlorophenylhydrazone]",uptake is blocked,,
O=C(O)CCCC[C@@H]1SC[C@@H]2NC(=O)N[C@@H]21 [biotin],,could be blocked,no effect
Cc1ncc(C[n+]2csc(CCO)c2C)c(N)n1 [thiamine],,no effect,
"avidin: protein known to tightly bind biotin, purchased from Sigma",,could competitively inhibit,
bovine serum albumin: similarly sized protein used as control,,no effect,

# Source: patent US7601511B2, “Biotin-facilitated transport in gram negative bacteria” (priority 2003, dated 2009)
